PubChem BioAssay (NCI)
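Method: 48-hour compound exposure of cells in 96-well plates, five concentrations, linear interpolation of endpoints. Abbreviation: GI50, concentration required for 50% inhibition of growth. TGI is the concentration that stops growth completely.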

Tests used:
Test in all cases: NCI-60 cell line screen, 48 h
TK-10 renal = tested on: TK-10 renal
UACC-257 melanoma = tested on: UACC-257 melanoma
KM12 colon = tested on: KM12 colon
IGROV1 ovarian = tested on: IGROV1 ovarian
HOP-92 NSCLC = tested on: HOP-92 NSCLC
RPMI-8226 leukemia = tested on: RPMI-8226 leukemia
OVCAR-4 ovarian = tested on: OVCAR-4 ovarian
HCC-2998 colon = tested on: HCC-2998 colon
CAKI-1 renal = tested on: CAKI-1 renal
M14 melanoma = tested on: M14 melanoma

Structure (SMILES) | GI50 (TK-10 renal) | TGI (TK-10 renal) | GI50 (UACC-257 melanoma) | TGI (UACC-257 melanoma) | GI50 (KM12 colon) | TGI (KM12 colon) | GI50 (IGROV1 ovarian) | TGI (IGROV1 ovarian) | GI50 (HOP-92 NSCLC) | TGI (HOP-92 NSCLC) | GI50 (RPMI-8226 leukemia) | TGI (RPMI-8226 leukemia) | GI50 (OVCAR-4 ovarian) | TGI (OVCAR-4 ovarian) | GI50 (HCC-2998 colon) | TGI (HCC-2998 colon) | GI50 (CAKI-1 renal) | TGI (CAKI-1 renal) | GI50 (M14 melanoma) | TGI (M14 melanoma)
COc1ccc(Cl)cc1Nc1nc(C(F)(F)F)ccc1C(=O)N/N=C/c1cc(OC)c(OC)c(OC)c1 | 1.76 µM | 7.28 µM | 1.65 µM | 3.96 µM | 3.55 µM | 20.8 µM | 0.346 µM | 2.3 µM | 2.09 µM | 7.56 µM | > 100 µM | > 100 µM | 1.32 µM | > 100 µM | 2.24 µM | 19.7 µM | 1.61 µM | 4.98 µM | 1.61 µM | 3.93 µM
O=c1ccc(=O)c2c(=O)c3ccccc3c(=O)c1=2 |  | > 100 µM |  | 90.4 µM |  | > 100 µM |  | > 100 µM |  | > 100 µM |  | > 100 µM |  | > 100 µM |  | > 100 µM |  | > 100 µM |  | > 100 µM
CCN(CC)c1ccc2c(c1)Nc1cc(=C(C#N)C#N)c3ccccc3c1=N2 |  | > 100 µM |  | > 100 µM |  | > 100 µM |  | > 100 µM |  | > 100 µM |  | > 100 µM |  | > 100 µM |  | > 100 µM |  | > 100 µM |  | > 100 µM
CCOC(=O)CC1NC(=O)CS1 (stereo not drawn) |  | > 100 µM |  | > 100 µM |  | > 100 µM |  | > 100 µM |  | > 100 µM |  | 60.1 µM |  | > 100 µM |  | > 100 µM |  | > 100 µM |  | > 100 µM
C/C(=N\NC(N)=S)c1nc2ccc(Cl)cc2[nH]1 | 2.6 µM | 20.7 µM | 5.05 µM | > 50 µM | 2.03 µM | 16.2 µM | 3.06 µM | 17.8 µM | 12 µM | 39.1 µM | 3.3 µM | 30.6 µM | 1.31 µM | 19.9 µM | 4.1 µM | 16.4 µM | 0.287 µM | 1.74 µM | 1.8 µM | 28.5 µM
CSc1ccc(/C=C2\C=C(CC(=O)NCc3ccc(C(=O)c4ccccc4)cc3)c3cc(F)ccc32)cc1 | 0.329 µM | 6.93 µM | 0.572 µM | > 100 µM | 0.0335 µM | 1.48 µM | 0.0848 µM | 17.7 µM | 0.179 µM | 6 µM | 0.0648 µM | > 68.3 µM | 0.127 µM | 20.2 µM | 0.0544 µM | 0.756 µM | 0.0741 µM | 8.23 µM | 0.0449 µM | 4.16 µM
O=C(OC[C@H]1O[C@@H](OC(=O)c2cc(O)c(O)c(O)c2)[C@H](OC(=O)c2cc(O)c(O)c(O)c2)[C@@H](OC(=O)c2cc(O)c(O)c(O)c2)[C@@H]1OC(=O)c1cc(O)c(O)c(O)c1)c1cc(O)c(O)c(O)c1 |  | 66 µM |  | 65 µM |  | 6.65 µM |  | > 100 µM |  | 37.4 µM |  | > 100 µM |  | 41.1 µM |  | 12.3 µM |  | 85.6 µM |  | 24.4 µM
C=C(C=O)CCCC(C)[C@@H]1CCC23CC12CCC1[C@@]2(C)CCC(OC(C)=O)C(C)(C)C2CC(OC2OC(COC(C)=O)C(O)C(O)C2O)[C@]13C (stereo partly drawn) |  | 12.5 µM |  | 11.6 µM |  | 9.53 µM |  | 7.9 µM |  | 12.4 µM |  | 3.01 µM |  | 11.1 µM |  | 13.9 µM |  | 10.9 µM |  | 4.57 µM
C[N+]1(C)C/C(=C\c2ccncc2)C(=O)/C(=C/c2ccncc2)C1 |  | > 100 µM |  | > 100 µM |  | > 100 µM |  | > 100 µM |  | > 100 µM |  | > 100 µM |  | > 100 µM |  | > 100 µM |  | > 100 µM |  | > 100 µM
COc1cc(Cn2c(-c3nonc3N)nc3ccccc32)ccc1C | 1.09 µM | 30 µM | 0.419 µM | > 100 µM | 0.468 µM | > 100 µM | 1.22 µM | > 61.6 µM | 0.566 µM | 30 µM | 0.493 µM | > 100 µM | 0.731 µM | > 95.2 µM | 1.42 µM | > 100 µM | 0.477 µM | > 100 µM | 0.426 µM | 34.8 µM
O=C1c2ccccc2-n2c1nc1ccccc1c2=O |  | > 100 µM |  | 9.65 µM |  | > 67.1 µM |  | > 92.1 µM |  | > 100 µM |  | > 100 µM |  | 53.7 µM |  | > 90.4 µM |  | 42.3 µM |  | 11.1 µM
Cc1cc(-c2nnc3n2CCCCC3)c(C)n1-c1ccc(Cl)c(Cl)c1 | 20.1 µM | 65.3 µM | 12.7 µM | 32.3 µM | 16.6 µM | 32 µM | 17.9 µM | 42.7 µM | 11.9 µM | 31.9 µM | 9.53 µM | 39.9 µM | 8.4 µM | 57.5 µM | 14 µM | 29.3 µM | 22.3 µM | > 100 µM | 14.9 µM | 33.5 µM
N#C[C@@H]1C(n2ccc(N)nc2=O)O[C@H](CO)[C@H]1O (stereo partly drawn) | > 100 µM | > 100 µM | > 93.3 µM | > 100 µM | > 100 µM | > 100 µM | > 100 µM | > 100 µM | 7.66 µM | > 100 µM | > 100 µM | > 100 µM | > 100 µM | > 100 µM | > 100 µM | > 100 µM | 3.49 µM | > 100 µM | 2.97 µM | > 100 µM
O=[N+]([O-])c1ccc2c(c1)[O][Sn]([I])([I])[O]2 | > 100 µM | > 100 µM | > 100 µM | > 100 µM | > 100 µM | > 100 µM | > 100 µM | > 100 µM | > 100 µM | > 100 µM | 44.6 µM | > 100 µM | > 100 µM | > 100 µM | > 100 µM | > 100 µM | > 100 µM | > 100 µM | > 100 µM | > 100 µM
CC1CCN(CC(=O)N2c3ccccc3Sc3cc4ccccc4cc32)CC1 |  | > 100 µM |  | > 100 µM |  | > 100 µM |  | > 100 µM |  | > 100 µM |  | > 100 µM |  | > 100 µM |  | > 100 µM |  | > 100 µM |  | > 100 µM
COC(=O)CCC1=C(C)/C(=C/c2[nH]c(-c3ccc[nH]3)cc2OC)N=C1C | 2.34 µM | 9.22 µM | 0.871 µM | 3.97 µM | 0.389 µM | 2.39 µM | 1.4 µM | 12 µM | 0.191 µM | 0.571 µM | 0.272 µM | 1.38 µM | 0.626 µM | 2.12 µM | 1.37 µM | 6.73 µM | 0.346 µM | 3.15 µM | 0.42 µM | 1.8 µM
COC(=O)c1c(-c2ccccc2)sc(-c2cccc3ccccc23)c1C(=O)OC |  | > 100 µM |  | > 100 µM |  | > 100 µM |  | > 100 µM |  | > 100 µM |  | > 100 µM |  | > 100 µM |  | > 100 µM |  | > 100 µM |  | > 100 µM
O=C1CCCN1CC#CCN1CCCC1 | > 100 µM | > 100 µM | > 100 µM | > 100 µM | > 100 µM | > 100 µM | > 100 µM | > 100 µM | > 100 µM | > 100 µM | > 100 µM | > 100 µM | > 100 µM | > 100 µM | > 100 µM | > 100 µM | > 100 µM | > 100 µM | > 100 µM | > 100 µM
CC(=O)Nc1ccc(S(=O)(=O)NNC(=O)c2cccnc2Nc2ccc(Cl)cc2)cc1 | 25.3 µM | > 100 µM | 89.4 µM | > 100 µM | 4.19 µM | > 100 µM | 27.3 µM | > 100 µM | > 100 µM | > 100 µM | 28.6 µM | > 100 µM | 44.9 µM | > 100 µM | 8.38 µM |  | 9.18 µM | > 100 µM | 11.5 µM | > 100 µM
C=C1C(=O)O[C@H]2C[C@@]3(C)[C@H](O)CCC(=C)[C@@H]3[C@@H](OC(C)=O)[C@H]12 |  | 24.1 µM |  | 34.8 µM |  | 36 µM |  | 30 µM |  | 16 µM |  | 68.7 µM |  | 20.8 µM |  | 30.3 µM |  | 3.23 µM |  | 25.2 µM
O=C1CC(=O)OC(c2ccc([N+](=O)[O-])cc2)O1 | 1.92 µM | 4.53 µM | 1.66 µM | 3.36 µM | 1.95 µM | 4.03 µM | 3.1 µM | 14.3 µM | 0.23 µM | 3.71 µM | 2.51 µM | 7.33 µM | 2.82 µM | 8.91 µM | 1.76 µM | 3.18 µM | 1.44 µM | 3.24 µM | 1.97 µM | 4 µM
O=C1CCC(O)=C1O |  | > 100 µM |  |  |  | > 100 µM |  | > 100 µM |  | > 100 µM |  | > 100 µM |  | > 100 µM |  | > 100 µM |  | > 100 µM |  | > 100 µM
